Source: patent publication US10517889B2, “Modulators of SMAD7 expression” (Ionis Pharmaceuticals, Inc., priority 2017, dated 2019)
Values joined by “and” are separate entries in the source; they are usually repeats but may differ in a detail not shown here. Identical values can stand only once. Strand notation (5' to 3'): a small letter for the sugar, then the base; units joined by * are phosphorothioate-linked, units joined directly phosphodiester-linked; [ ] holds rarer units or linkages, { } end groups; capitals alone tell only the bases. k = constrained ethyl (cEt); [5mC] = 5-methylcytosine; d = 2'-deoxy (DNA)

Assays:
human SMAD7 mRNA [1] = assay: Dose-dependent inhibition of human SMAD7 mRNA expression in Hep3B cells (Example 3, Study 1 and 2); type: cell-based; details: electroporation; for % inhibition of SMAD7 mRNA expression: approximately 16 hours; for IC50: Study 2 (740-20000 nM)
In short: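 Hep3B cells, 20,000 per well, electroporated with antisense oligonucleotide at 0.31, 1.25, 5.00 or 20.00 μM (first series) or 0.74, 2.22, 6.67 or 20.00 μM (second series). After ~16 h, SMAD7 mRNA measured by RT-qPCR (RTS5062), normalised to RIBOGREEN total RNA. Percent inhibition vs untreated cells; IC50 derived.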

human SMAD7 mRNA [2] = assay: Antisense inhibition of human SMAD7 mRNA expression in Hep3B cells by 3-10-3 cEt gapmers, 10,000 nM, electroporation (Example 2); type: cell-based; details: approximately 24 hours
In short: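 Hep3B, 20,000 cells/well; electroporation, 10,000 nM ASO; ~24 h. Readout: SMAD7 mRNA by qRT-PCR (RTS5062), RIBOGREEN-normalised; % inhibition vs untreated.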

[3] = 740 nM, Study 2, relative to untreated control cells
[4] = Hep3B cells, electroporation with 10,000 nM antisense oligonucleotide, RTS5062, percent inhibition of SMAD7 mRNA relative to untreated control cells
[5] = SMAD7 mRNA, Hep3B cells, 10,000 nM antisense oligonucleotide, electroporation, primer probe set RTS5062, relative to untreated control cells
[6] = Hep3B cells, electroporation with 10,000 nM antisense oligonucleotide, SMAD7 mRNA by RT-PCR (RTS5062), relative to untreated control cells

| Substance | % inhibition of SMAD7 mRNA expression (human SMAD7 mRNA [1]; [3]) | % inhibition of SMAD7 mRNA expression (human SMAD7 mRNA [1]; 2220 nM, Study 2) | % inhibition of SMAD7 mRNA expression (human SMAD7 mRNA [1]; 6670.0 nM, Study 2) | % inhibition of SMAD7 mRNA expression (human SMAD7 mRNA [1]; 20000.0 nM, Study 2) | IC50 (human SMAD7 mRNA [1]) [nM] | % Inhibition (human SMAD7 mRNA [2]; [4]) [%] | % Inhibition (human SMAD7 mRNA [2]; [5]) [%] | % inhibition of SMAD7 mRNA expression (human SMAD7 mRNA [2]; Hep3B cells, electroporation with 10,000 nM antisense oligonucleotide, primer probe set RTS5062, relative to untreated control cells) [%] | % Inhibition (human SMAD7 mRNA [2]; [6]) [%] | % Inhibition (human SMAD7 mRNA [2]; SMAD7 mRNA, Hep3B cells, electroporation with 10,000 nM antisense oligonucleotide, primer probe set RTS5062, relative to untreated control cells) [%] |
| --- | --- | --- | --- | --- | --- | --- | --- | --- | --- | --- |
| 799583 (kA*kA*kG*dA*d[5mC]*dA*dA*dA*d[5mC]*d[5mC]*dT*dT*d[5mC]*k[5mC]*kG*kA; antisense) [compound 799583] | 26% and 31% | 61% and 46% | 73% and 59% | 65% and 83% | 3000 | 74 | 74 |  |  |  |
| 799686 (antisense kG*kA*kG*dA*dT*dT*dT*dT*dA*dA*dA*dT*dG*k[5mC]*kT*kG) [compound 799686] | 18% | 35% | 36% | 56% | 2000 | 62 |  |  |  |  |
| 799089 (antisense kA*kG*k[5mC]*dA*dA*dT*dA*d[5mC]*dT*dG*dT*dG*dA*kG*kG*kG) [compound 799089] | 12% | 40% | 61% | 76% | 7000 |  |  | 60 |  |  |
| 830097 (k[5mC]*k[5mC]*kA*dT*d[5mC]*dT*dA*dA*d[5mC]*dA*dA*d[5mC]*dA*kT*k[5mC]*k[5mC]; antisense) [compound 830097] | 29% | 60% | 78% | 86% | 1000 |  |  |  | 68 |  |
| 799964 (antisense k[5mC]*k[5mC]*k[5mC]*d[5mC]*dT*dT*dA*dG*d[5mC]*dG*d[5mC]*dA*dT*kT*k[5mC]*kT) [compound 799964] | 4% | 15% | 46% | 61% | > 20000 |  |  |  | 55 |  |
| 829864 (antisense kG*kG*kG*dT*dA*dA*d[5mC]*dT*dG*d[5mC]*dT*dG*d[5mC]*kG*kG*kT) [compound 829864] | 0% | 33% | 67% | 76% | 1000 |  |  |  |  | 68 |
| 799396 (antisense kT*kG*kT*dT*dA*d[5mC]*dA*dA*dA*dT*dA*d[5mC]*dA*kG*kA*kG) [compound 799396] |  | 52% and 38% | 72% and 70% | 78% and 85% |  |  | 66 |  | 69 |  |
| 799904 (antisense kA*k[5mC]*kT*d[5mC]*dA*dG*dA*dG*d[5mC]*dA*dG*d[5mC]*dT*k[5mC]*kT*k[5mC]) [compound 799904] | 3% | 9% | 23% | 62% | 8000 |  |  |  | 61 |  |
| 799608 (kA*k[5mC]*kG*dA*dT*d[5mC]*dA*dA*d[5mC]*dT*dT*d[5mC]*dT*kT*kG*kA; antisense) [compound 799608] | 35% | 56% | 70% | 76% | 3000 | 70 |  |  |  |  |
| 799564 (k[5mC]*kA*kG*dA*dT*dA*dA*d[5mC]*dA*dG*dA*dG*dT*kA*kT*kA; antisense) [compound 799564] | 13% | 41% | 60% | 73% | 3000 | 70 |  |  |  |  |
